Laboratory results as given in patent publication US20250275540A1, “USE OF PROTOPORPHYRINOGEN OXIDASE” (BEIJING DABEINONG BIOTECHNOLOGY CO., LTD., priority 2022, published 2025).

System: transgenic soybean plants
Assay: Detection of the herbicide tolerance of the transgenic soybean plants
Type: in vivo
Details: for The grade of pesticide damage/plant: 0 / The grade of pesticide damage/plant: 1 / The grade of pesticide damage/plant: 2 / The grade of pesticide damage/plant: 3: 7 DAT
[1] = genotype Control vector, 360 g ai/ha
[2] = genotype Control vector, 720 g ai/ha
[3] = genotype PPO-AP-01, 360 g ai/ha
[4] = genotype PPO-AP-01, 720 g ai/ha
[5] = genotype PPO-EC-01, 360 g ai/ha
[6] = genotype PPO-EC-01, 720 g ai/ha

CCOc1cc(Oc2ccc(C(F)(F)F)cc2Cl)ccc1[N+](=O)[O-] [oxyfluorfen, 2-chloro-1-(3-ethoxy-4-nitrophenoxy)-4-trifluoromethylbenzene]
high-resistant tolerance: tolerance to the herbicide (in words) (genotypes PPOA-01 to PPOF-01 and PPO-EC-01, four-fold field concentration) | tolerance to the herbicide (in words) (genotypes PPOA-01 to PPOF-01 and PPO-EC-01, two-fold field concentration)
3 plant: The grade of pesticide damage/plant: 1 [6]
14 plant: The grade of pesticide damage/plant: 0 (genotype PPOE-01, 720 g ai/ha)
0 plant: The grade of pesticide damage/plant: 0 (genotype CK, 360 g ai/ha) | The grade of pesticide damage/plant: 1 (genotype CK, 360 g ai/ha) | The grade of pesticide damage/plant: 2 (genotype CK, 360 g ai/ha) | The grade of pesticide damage/plant: 0 (genotype CK, 720 g ai/ha) | The grade of pesticide damage/plant: 1 (genotype CK, 720 g ai/ha) | The grade of pesticide damage/plant: 2 (genotype CK, 720 g ai/ha) | The grade of pesticide damage/plant: 0 [1] | The grade of pesticide damage/plant: 1 [1] | The grade of pesticide damage/plant: 2 [1] | The grade of pesticide damage/plant: 0 [2] | The grade of pesticide damage/plant: 1 [2] | The grade of pesticide damage/plant: 2 [2] | The grade of pesticide damage/plant: 0 [3] | The grade of pesticide damage/plant: 1 [3] | The grade of pesticide damage/plant: 0 [4] | The grade of pesticide damage/plant: 1 [4] | The grade of pesticide damage/plant: 2 [4] | The grade of pesticide damage/plant: 1 [5] | The grade of pesticide damage/plant: 2 [5] | The grade of pesticide damage/plant: 3 [5] | The grade of pesticide damage/plant: 2 [6] | The grade of pesticide damage/plant: 3 [6] | The grade of pesticide damage/plant: 1 (genotype PPOA-01, 360 g ai/ha) | The grade of pesticide damage/plant: 2 (genotype PPOA-01, 360 g ai/ha) | The grade of pesticide damage/plant: 3 (genotype PPOA-01, 360 g ai/ha) | The grade of pesticide damage/plant: 2 (genotype PPOA-01, 720 g ai/ha) | The grade of pesticide damage/plant: 3 (genotype PPOA-01, 720 g ai/ha) | The grade of pesticide damage/plant: 1 (genotype PPOB-01, 360 g ai/ha) | The grade of pesticide damage/plant: 2 (genotype PPOB-01, 360 g ai/ha) | The grade of pesticide damage/plant: 3 (genotype PPOB-01, 360 g ai/ha) | The grade of pesticide damage/plant: 1 (genotype PPOB-01, 720 g ai/ha) | The grade of pesticide damage/plant: 2 (genotype PPOB-01, 720 g ai/ha) | The grade of pesticide damage/plant: 3 (genotype PPOB-01, 720 g ai/ha) | The grade of pesticide damage/plant: 1 (genotype PPOC-01, 360 g ai/ha) | The grade of pesticide damage/plant: 2 (genotype PPOC-01, 360 g ai/ha) | The grade of pesticide damage/plant: 3 (genotype PPOC-01, 360 g ai/ha) | The grade of pesticide damage/plant: 1 (genotype PPOC-01, 720 g ai/ha) | The grade of pesticide damage/plant: 2 (genotype PPOC-01, 720 g ai/ha) | The grade of pesticide damage/plant: 3 (genotype PPOC-01, 720 g ai/ha) | The grade of pesticide damage/plant: 1 (genotype PPOD-01, 360 g ai/ha) | The grade of pesticide damage/plant: 2 (genotype PPOD-01, 360 g ai/ha) | The grade of pesticide damage/plant: 3 (genotype PPOD-01, 360 g ai/ha) | The grade of pesticide damage/plant: 1 (genotype PPOD-01, 720 g ai/ha) | The grade of pesticide damage/plant: 2 (genotype PPOD-01, 720 g ai/ha) | The grade of pesticide damage/plant: 3 (genotype PPOD-01, 720 g ai/ha) | The grade of pesticide damage/plant: 1 (genotype PPOE-01, 360 g ai/ha) | The grade of pesticide damage/plant: 2 (genotype PPOE-01, 360 g ai/ha) | The grade of pesticide damage/plant: 3 (genotype PPOE-01, 360 g ai/ha) | The grade of pesticide damage/plant: 2 (genotype PPOE-01, 720 g ai/ha) | The grade of pesticide damage/plant: 3 (genotype PPOE-01, 720 g ai/ha) | The grade of pesticide damage/plant: 1 (genotype PPOF-01, 360 g ai/ha) | The grade of pesticide damage/plant: 2 (genotype PPOF-01, 360 g ai/ha) | The grade of pesticide damage/plant: 3 (genotype PPOF-01, 360 g ai/ha) | The grade of pesticide damage/plant: 1 (genotype PPOF-01, 720 g ai/ha) | The grade of pesticide damage/plant: 2 (genotype PPOF-01, 720 g ai/ha) | The grade of pesticide damage/plant: 3 (genotype PPOF-01, 720 g ai/ha)
50%: share of the plants that exhibited no tolerance (genotype PPO-AP-01, two-fold field concentration)
15 plant: The grade of pesticide damage/plant: 0 (genotype PPOA-01, 720 g ai/ha)
13 plant: The grade of pesticide damage/plant: 0 [6]
8 plant: The grade of pesticide damage/plant: 2 [3] | The grade of pesticide damage/plant: 3 [3]
16 plant: The grade of pesticide damage/plant: 3 (genotype CK, 360 g ai/ha) | The grade of pesticide damage/plant: 3 (genotype CK, 720 g ai/ha) | The grade of pesticide damage/plant: 3 [1] | The grade of pesticide damage/plant: 3 [2] | The grade of pesticide damage/plant: 3 [4] | The grade of pesticide damage/plant: 0 [5] | The grade of pesticide damage/plant: 0 (genotype PPOA-01, 360 g ai/ha) | The grade of pesticide damage/plant: 0 (genotype PPOB-01, 360 g ai/ha) | The grade of pesticide damage/plant: 0 (genotype PPOB-01, 720 g ai/ha) | The grade of pesticide damage/plant: 0 (genotype PPOC-01, 360 g ai/ha) | The grade of pesticide damage/plant: 0 (genotype PPOC-01, 720 g ai/ha) | The grade of pesticide damage/plant: 0 (genotype PPOD-01, 360 g ai/ha) | The grade of pesticide damage/plant: 0 (genotype PPOD-01, 720 g ai/ha) | The grade of pesticide damage/plant: 0 (genotype PPOE-01, 360 g ai/ha) | The grade of pesticide damage/plant: 0 (genotype PPOF-01, 360 g ai/ha) | The grade of pesticide damage/plant: 0 (genotype PPOF-01, 720 g ai/ha)
1 plant: The grade of pesticide damage/plant: 1 (genotype PPOA-01, 720 g ai/ha)
2 plant: The grade of pesticide damage/plant: 1 (genotype PPOE-01, 720 g ai/ha)
no tolerance: tolerance to the herbicide (in words) (genotype PPO-AP-01, four-fold field concentration)
